From patent publication US20230331652A1, “TRANS-CYCLOOCTENES WITH HIGH REACTIVITY AND FAVORABLE PHYSIOCHEMICAL PROPERTIES” (University of Delaware, priority 2020, published 2023)
“Also recorded” adds a separate entry of the source.

Assays:
[1] = Storage stability of neat TCO; format: physicochemical; conditions: neat versus stored in solution
Excerpt: The diastereoselective additions of 2 with methyl α-lithioacetate or lithioacetonitrile provided a straightforward path to introduce handles for conjugation via amide bond or ether formation. The reaction of ketone 2 with lithium bis(trimethylsilyl)amide (LiHMDS)/methyl acetate produced ester 9 in 86% yield. Similarly, the combination of 2 with LiHMDS and acetonitrile produced nitrile 10 in 98% yield. Hydrolysis of 9 with trimethyltin hydroxide followed by DIC-mediated coupling with N-hydroxysuccinimide gave NHS ester 11 in 89% yield (FIG. 3B). Alternately, using LiOH gave 11 in 46% yield after DIC coupling. Through amide coupling, 11 gave the fluorescent TAMRA-conjugate 12 with favorable physiochemical properties, and 11 was also combined with hydrazine monohydrate to give hydrazide 13 with a potential handle for aldehyde conjugation. TCO 9 also was combined with LiAlH4 to provide diol 14 in 89% yield which was next used in a Williamson ether synthesis with NaH/propargyl bromide to give 96% yield of propargyl ether 15. […] Amine 16 was synthesized by LiAlH4 reduction of TCO nitrile 10 in 93% yield to introduce an acid reactive conjugation handle. […] In summary, ketone 2 can serve as a readily prepared, central intermediate for the diastereoselective preparation of a range of hydrophilic a-TCO conjugates.

HeLa cells = assay: TAMRA-TCO comparative washout assay; format: cell-based; conditions: 5 μM, 30 min incubation
Excerpt: While TCO-derivatives offer rapid labeling kinetics, a consideration for labeling by fluorophore-tagged TCOs has been the background fluorescence due to non-covalent cellular binding that can be ameliorated only by extended washout times. More hydrophilic oxo- and dioxo-trans-cyclooctenes with backbone oxygens offer improvements, but are difficult to synthesize and, for dioxo-TCO, display reduced Diels-Alder kinetics. As shown in FIGS. 5A-5C, the fluorescent conjugates TAM RA-TCO, TAMRA-oxo-TCO and TAMRA-a-TCO were prepared and compared their cellular washout times to unconjugated TAMRA. Thus, HeLa cells were incubated for 30 min with TAMRA-dyes, and cells were initially washed three times with DPBS, and then cell media was exchanged after 10, 40 and 120 minutes. After each wash, cells were imaged live by fluorescence microscopy with illumination at 531 nm and fixed-intensity across all samples. Widefield images of the cells after 3 washes are shown in FIG. 5B; images after the earlier and later washings are shown in FIG. 8. Background fluorescence was quantified by dividing total fluorescence by the number of cells in each image (FIG. 5C).
HeLa cells were seeded at 5×10^3 cells per well in a poly-L-lysine (0.1 mg/mL) coated 48-well plate and allowed to grow for 48 hours in Dulbecco's modified eagle medium (DMEM, Life Technologies) supplemented with 5% FBS (Life Technologies), 1 mM L-glutamine, and 1% penicillin/streptomycin (Life Technologies). Cells were then incubated with media containing 5 μM of TAMRA-TCO, TAMRA-oxo-TCO, or TAMRA-a-TCO 12 (1 mM stock solutions in DMSO, diluted twice into media) for 30 mins at 37° C. All wells were washed three times with DPBS before adding fresh media. Cells were imaged after 2 DPBS washes and again after the 3rd DPBS wash, then incubated for additional time intervals: 10 minutes, 40 minutes, and 2 hour. At each time point, the media was removed from the designated wells and replaced with fresh media before imaging. Images were taken with an EVOS M7000 and all images were taken with the same laser power and gain. Fluorescence intensity was calculated for each sample in 3 replicates using ImageJ and the fluorescence data was normalized with the cell count of each image.

[2] = system: HeLa cells transfected with either HaloTag-H2B-GFP (nucleus) or HaloTag-GAP43-GFP (cytoplasm); assay: TAMRA-a-TCO permeability assay (HaloTag intracellular labeling); format: cell-based; conditions: 1 μM, 30 min
Method: Here, cells are transfected with a GFP-HaloTag construct fused to a protein that controls subcellular localization, and then labeled by a tetrazine-HaloTag ligand 21. Upon subsequent reaction with fluorescent TAMRA-a-TCO, conjugation is expected only in those cells that express the HaloTag fusion protein, and co-localization of GFP and TAMRA fluorescence is expected.
HeLa Cell Culture and Transfection: HeLa cells were grown in Dulbecco's modified eagle medium (DMEM, Life Technologies) supplemented with 10% (v:v) heat inactivated fetal bovine serum (Life Technologies), 2 mM I-glutamine, and 100 units/mL penicillin/streptomycin (Life Technologies) in a humidified incubator at 37° C./5% CO2. Transfection was performed with cells at 70% confluency using Lipofectamine 3000 according to the manufacturer's instructions. HeLa cells were incubated for 5 hours at 37° C./5% CO2 before being exchanged with antibiotic free growth media for 16-20 hours prior to experimental procedures. […]

| cell permeability ([2]; live HeLa cells, after MeTz-Halo 21 (10 μM)) | SMILES | storage stability [1] | reduction in background fluorescence relative to TAMRA-TCO (HeLa cells; after initial 3× wash) [%] | background fluorescence / washout after 2 hours (HeLa cells; media exchanges up to 2 hours) | colocalization of TAMRA signal with GFP ([2]; nuclear (H2B) and cytoplasmic (GAP43) HaloTag targets, confocal microscopy) |
| --- | --- | --- | --- | --- | --- |
| – | C#CCOCC[C@]1(O)CC/C=C/CCC1 [Compound 15, 5-ax-Hydroxy-5-eq-(2-(prop-2-yn-1-yloxy)ethyl)-trans-cyclooctene] | more stable alternative | – | – | – |
| – | C=CCC1(O)CC/C=C/CCC1 (stereo not drawn) [Compound 6, 5-eq-Allyl-5-ax-hydroxy-trans-cyclooctene] | polymerize if not stored in solution | – | – | – |
| cell permeable | CN(C)c1ccc2c(-c3ccc(C(=O)NCCCCCNC(=O)C[C@]4(O)CC/C=C/CCC4)cc3C(=O)[O-])c3ccc(=[N+](C)C)cc-3oc2c1 [TAMRA-a-TCO, (R,E)-2-(6-(dimethylamino)-3-(dimethyliminio)-3H-xanthen-9-yl)-5-((5-(2-(1-hydroxycyclooct-4-en-1-yl)acetamido)pentyl)carbamoyl)benzoate] | – | 85 | essentially complete | subcellular colocalization of GFP and TAMRA fluorescence; also recorded: selective colocalization of the TAMRA signal with GFP was observed |
